According to ChEMBL document CHEMBL3507680, “University of Dundee, Gates Library screen for HepG2 cell viability”:

Assay: Human HepG2 cell viability assay in 384 well format
Assay type: toxicity, cell-based
Set-up: dose 125 nL, time 70.5 hour; cytotoxicity at 70.5 h: concentration not given beside the values
Conditions: HepG2 cells, read-out: Inhibition

Row | SMILES | cytotoxicity at 70.5 h [%]
1 | CC(Cn1ccnc1)NC(=O)Nc1ccccn1 (centres undefined) | 10.5
2 | N#Cc1cn(C2CC2)c(=O)n(CC(O)c2ccc(Cl)cc2)c1=O (centres undefined) | -3.7
3 | Cc1cc(C)c(CNC(=O)N2CCN(c3nccs3)CC2)c(=O)[nH]1 | 14.3
4 | Cc1cc(C)c(CNC(=O)N2CCN(c3ccccn3)CC2)c(=O)[nH]1 | 0.786
5 | CC(OCC1CC1)C(=O)Nc1ncn(CC(=O)N2CCCCCC2)n1 (centres undefined) | 10.7
6 | c1ncc2c(n1)CN(Cc1nc(-c3ccc4c(c3)OCO4)no1)CC2 | -4.3
7 | c1ncc2c(n1)CN(Cc1nc(-c3ccoc3)no1)CC2 | -7.49
8 | CCn1ccnc1CN1CCN(CC(=O)NC(C2CC2)C2CC2)CC1 | 16.4
9 | CC(C)NC(=O)CCNC(=O)Nc1ccc(-n2cncn2)c(F)c1 | -11.5
10 | O=C(COC1CCCC1)Nc1ncn(CC(=O)N2CCCCCC2)n1 | -8.06
11 | Cc1cc(C)n(CC(=O)N2CCC(Nc3cccnn3)CC2)n1 | -5.61
12 | O=C(CC1=CCCCC1)Nc1ncn(CC(=O)N2CCCCCC2)n1 | -6.09
13 | CN(C(=O)NCc1ccncc1)C1CCCN(c2ccccc2)C1=O (centres undefined) | -4.3
14 | CC(=O)Nc1ccc(-n2cncn2)c(F)c1 | -2.56
15 | Cc1nnc2n1CCN(CC(=O)N1CCc3ccccc3C1)C2 | 49.9
16 | CCCc1nc(CNCC2CCCN2c2cccnn2)cs1 (centres undefined) | 11.9
17 | CCc1nnc2n1CCN(CC(=O)N1CCc3ccccc3C1)C2 | 28.5
18 | Cc1ncsc1C(=O)N(C)Cc1ccccc1 | -4.43
19 | c1cnnc(N2CCCC2CNCc2csc(-c3ccco3)n2)c1 (centres undefined) | -11.5
20 | c1ccc(Cc2noc(CN3CCCCC3Cn3cncn3)n2)cc1 (centres undefined) | 11.2

Row | SMILES | cytotoxicity at 70.5 h [%]
21 | O=C(Cn1nc(-c2ccc(F)cc2)oc1=O)NCc1ccncc1 | -12.1
22 | Cc1ncsc1C(=O)NCc1ccnc(OCC(F)(F)F)c1 | -11.3
23 | Cc1cc(C(=O)NCc2ccnc(OCC(F)(F)F)c2)on1 | 16.2
24 | Cc1cc(C)n(-c2ccc(CNCc3ccc(F)c(F)c3)cn2)n1 | 2.51
25 | Cc1cc(C)n(-c2ccc(CNCc3cccc(C#N)c3)cn2)n1 | -12.6
26 | Cc1ccc(C(=O)N2CCC(Oc3cccc(C)c3C)CC2)c(=O)[nH]1 | -4.54
27 | Cc1ccc(C(=O)N2CCC(Oc3c(C)cccc3C)CC2)c(=O)[nH]1 | 0.338
28 | O=C(Nc1ccccn1)N(CCO)Cc1ccccc1Br | -2.33
29 | Cn1cc(-c2nc(CN3CCN(c4nccs4)CC3)cs2)cn1 | -5.83
30 | Cc1cc(C)n(CC2CN(c3nnc(C)c(C)c3C#N)CCO2)n1 (centres undefined) | -3.24
31 | Cc1nnc(N2CCOC(CN(C)C)C2)c(C#N)c1C (centres undefined) | -6.93
32 | NC(=O)c1cnn2c1NCC(CNCCCc1ccccc1)C2 (centres undefined) | -6.83
33 | Cc1cc(NC(=O)N(CCO)Cc2ccsc2)no1 | -4.98
34 | c1cnn(CC2CCCCN2Cc2noc(C3CC3)n2)c1 (centres undefined) | -6.47
35 | NC(=O)c1cnn2c1NCC(CNCCc1cccs1)C2 (centres undefined) | -5.82
36 | CCc1ccc(C(=O)NC2CCc3nc(C)cn3C2)o1 (centres undefined) | -4.82
37 | Cc1nnc(N2CCOC(C)C2)c(C#N)c1C (centres undefined) | -8.59
38 | CN1CCCC1CNC(=O)CCCOc1cccc(F)c1 (centres undefined) | 5.1
39 | Cc1cc(C)c2c(c1)C(NCc1c(C)nn(C)c1N(C)C)CCO2 (centres undefined) | 3.6
40 | COc1c(CNC(c2cccc(F)c2)c2nccn2C)c(C)nn1C (centres undefined) | 19

Row | SMILES | cytotoxicity at 70.5 h [%]
41 | Cc1nc2ccccc2c(=O)n1CCC(=O)N1CCCC1 | -6.75
42 | Cc1nc2ccccc2c(=O)n1CCC(=O)N1CCCCCC1 | 1.78
43 | Cc1ccc(C(=O)Nc2cn[nH]c2)cc1F | 13.5
44 | CC(C)c1noc(CCC(=O)NC(C)c2ccccn2)n1 (centres undefined) | -1.62
45 | Cn1cc(C(=O)N2CCN(Cc3ccsc3)CC2)cn1 | 14.2
46 | COC1CCN(C(=O)Cc2csc(-c3ccc(F)cc3)n2)CC1 | 0.103
47 | Cc1ccc(C(=O)N(C)Cc2ccc3c(c2)OCCO3)c(=O)[nH]1 | 18.5
48 | Cc1nn(C)c(N(C)C)c1CNC1CCOc2ccccc21 (centres undefined) | 1.15
49 | CN1CCCC1CNC(=O)CCCOc1ccc(I)cc1 (centres undefined) | -0.485
50 | CN1CCCC1CNC(=O)CCOc1ccc(Cl)cc1 (centres undefined) | -2.08
51 | COc1c(CNC(c2ccccc2)c2ccc(F)cc2)c(C)nn1C (centres undefined) | 24
52 | CNc1nc(CNC(=O)Nc2cc(Cl)ccc2F)cs1 | -2.3
53 | CNc1nc(CNC(=O)Nc2cccc(C)c2Cl)cs1 | -1.43
54 | COC(=O)NCCC(=O)NC(C)Cc1cccc(Br)c1 (centres undefined) | 2.65
55 | CC(C)NC(=O)CN1CCC(c2cccc(F)c2)C1 (centres undefined) | 22.8
56 | CCOCC(O)CN1CCN(C(=O)Cc2ccc3c(c2)CCC3)CC1 (centres undefined) | 53.8
57 | O=C(CSc1ccc(Br)cc1)NS(=O)(=O)c1ccc2c(c1)OCCO2 | 4.15
58 | COCC(c1cccc(C(F)(F)F)c1)N(C)C(=O)c1ccccn1 (centres undefined) | -4.66
59 | CCC(O)CN1CCN(C(=O)Cc2ccc(C)nc2)CC1 (centres undefined) | -0.788
